From US20260285850A1, “SUBSTITUTED OXAZOLIDINONES AND IMIDAZOLINONES AS HERBICIDES” (FMC CORPORATION, priority 2023, published 2026)

What was measured:
Assay type in all cases: in vivo
[1] = test system: blackgrass (Alopecurus myosuroides); experiment: Test A postemergence application, visual injury rating 0-100
Outline: (§1)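 Visual injury, scored 0-100 (100 = complete control) against untreated plants, 10 days after greenhouse treatment. Test chemicals in surfactant-containing non-phytotoxic solvent were applied in loam soil and sand, as a preemergence soil spray on seeds or postemergence to plants at the one- to two-leaf stage.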

kochia (Bassia scoparia) [2] = experiment: as above
Outline: as §1

[3] = test system: ragweed (common ragweed, Ambrosia artemisiifolia); experiment: as above
Outline: as §1

[4] = test system: palmer (palmer amaranth, palmer pigweed, Amaranthus palmeri); experiment: as above
Outline: as §1

[5] = test system: oat, wild (wild oat, Avena fatua); experiment: as above
Outline: as §1

[6] = test system: green foxtail (Setaria viridis); experiment: as above
Outline: as §1

corn (Zea mays) [7] = experiment: as above
Outline: as §1

[8] = test system: barnyardgrass (Echinochloa crus-galli); experiment: as above
Outline: as §1

[9] = test system: horseweed (Erigeron canadensis); experiment: as above
Outline: as §1

soybean (Glycine max) [10] = experiment: as above
Outline: as §1

[11] = test system: galium (catchweed bedstraw, Galium aparine); experiment: as above
Outline: as §1

[12] = test system: ryegrass, Italian (italian ryegrass, Lolium multiflorum); experiment: as above
Outline: as §1

[13] = test system: wheat (Triticum aestivum); experiment: as above
Outline: as §1

[14] = test system: ducksalad (Heteranthera limosa); experiment: Test B flooded paddy test, visual plant response rating 0-100; conditions: 250 g ai/ha, Flood, applied to paddy water, evaluated after 13 days
Outline: (§2)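 Visual scores versus untreated controls were recorded 13 days after treatment of greenhouse-held plants. At the 2-leaf stage, pots were flooded 3 cm above the soil surface and compounds added straight to the water.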

rice (Oryza sativa) = experiment: as above; conditions: 250 g ai/ha, Flood, applied to paddy water, evaluated after 13 days
Outline: as §2

[15] = test system: barnyardgrass (Echinochloa crusgalli); experiment: as above; conditions: 250 g ai/ha, Flood, applied to paddy water, evaluated after 13 days
Outline: as §2

[16] = test system: sedge, umbrella (small-flower umbrella sedge, Cyperus difformis); experiment: as above; conditions: 250 g ai/ha, Flood, applied to paddy water, evaluated after 13 days
Outline: as §2

[17] = test system: blackgrass (Alopecurus myosuroides); experiment: Test A preemergence soil spray, visual injury rating 0-100; conditions: 10 days
Outline: as §1

kochia (Bassia scoparia) [18] = experiment: as above; conditions: 10 days
Outline: as §1

[19] = test system: ragweed (common ragweed, Ambrosia artemisiifolia); experiment: as above; conditions: 10 days
Outline: as §1

[20] = test system: palmer (palmer amaranth, palmer pigweed, Amaranthus palmeri); experiment: as above; conditions: 10 days
Outline: as §1

[21] = test system: oat, wild (wild oat, Avena fatua); experiment: as above; conditions: 10 days
Outline: as §1

[22] = test system: green foxtail (Setaria viridis); experiment: as above; conditions: 10 days
Outline: as §1

corn (Zea mays) [23] = experiment: as above; conditions: 10 days
Outline: as §1

[24] = test system: barnyardgrass (Echinochloa crus-galli); experiment: as above; conditions: 10 days
Outline: as §1

soybean (Glycine max) [25] = experiment: as above; conditions: 10 days
Outline: as §1

[26] = test system: ryegrass, Italian (italian ryegrass, Lolium multiflorum); experiment: as above; conditions: 10 days
Outline: as §1

[27] = test system: wheat (Triticum aestivum); experiment: as above; conditions: 10 days
Outline: as §1

[28] = 62 g ai/ha, postemergence, 10 days, 0 = no effect, 100 = complete control
[29] = Postemergence, 16 g ai/ha, greenhouse 10 days, 0 no effect, 100 complete control
[30] = 62 g ai/ha, 0 = no effect, 100 = complete control

COC(=O)C1C=CC(NC(=O)C2(C)CN(c3cc(F)cc(F)c3)C(=O)O2)C1 (stereo not shown) [Compound 89]
70: Ragweed plant response rating (0-100) [3, 28] | Pigweed, Palmer plant response rating (0 to 100 scale) [4, 29] | Plant response rating, Ducksalad (0 to 100 scale, 0 is no effect and 100 is complete control) [14] | Blackgrass plant response rating (0-100) [17, 30] | Barnyardgrass plant response rating ([24]; 16 g ai/ha, 0 to 100 scale)
0: Ragweed plant response rating ([19]; 16 g ai/ha, 0 to 100 scale)
80: Kochia plant response rating (0 to 100 scale) (kochia (Bassia scoparia) [2]; [29]) | Horseweed plant response rating (0-100) [9, 28] | Pigweed, Palmer plant response rating ([20]; 16 g ai/ha, 0 to 100 scale) | Oat, Wild plant response rating ([21]; 16 g ai/ha, 0 to 100 scale) | Soybean plant response rating (0-100) (soybean (Glycine max) [25]; [30]) | Ryegrass, Italian plant response rating ([26]; 16 g ai/ha, 0 to 100 scale)
50: Ragweed plant response rating (0 to 100 scale) [3, 29] | Soybean plant response rating (0-100) (soybean (Glycine max) [10]; [28]) | Soybean plant response rating (0 to 100 scale) (soybean (Glycine max) [10]; [29])
10: Foxtail, Green plant response rating ([22]; 16 g ai/ha, 0 to 100 scale)
25: Plant response rating, Rice (0 to 100 scale, 0 is no effect and 100 is complete control) (rice (Oryza sativa))
40: Soybean plant response rating (soybean (Glycine max) [25]; 16 g ai/ha, 0 to 100 scale)
60: Foxtail, Green plant response rating (0 to 100 scale) [6, 29]
95: Plant response rating, Barnyardgrass (0 to 100 scale, 0 is no effect and 100 is complete control) [15] | Plant response rating, Sedge, Umbrella (0 to 100 scale, 0 is no effect and 100 is complete control) [16]
30: Blackgrass plant response rating ([17]; 16 g ai/ha, 0 to 100 scale) | Ragweed plant response rating (0-100) [19, 30] | Corn plant response rating (corn (Zea mays) [23]; 16 g ai/ha, 0 to 100 scale)
90: Blackgrass plant response rating (0-100) [1, 28] | Blackgrass plant response rating (0 to 100 scale) [1, 29] | Kochia plant response rating (0-100) (kochia (Bassia scoparia) [2]; [28]) | Pigweed, Palmer plant response rating (0-100) [4, 28] | Oat, Wild plant response rating (0-100) [5, 28] | Oat, Wild plant response rating (0 to 100 scale) [5, 29] | Foxtail, Green plant response rating (0-100) [6, 28] | Corn plant response rating (0 to 100 scale) (corn (Zea mays) [7]; [29]) | Barnyardgrass plant response rating (0 to 100 scale) [8, 29] | Ryegrass, Italian plant response rating (0-100) [12, 28] | Ryegrass, Italian plant response rating (0 to 100 scale) [12, 29] | Wheat plant response rating (0-100) [13, 28] | Wheat plant response rating (0 to 100 scale) [13, 29] | Kochia plant response rating (kochia (Bassia scoparia) [18]; 16 g ai/ha, 0 to 100 scale) | Oat, Wild plant response rating (0-100) [21, 30] | Ryegrass, Italian plant response rating (0-100) [26, 30] | Wheat plant response rating ([27]; 16 g ai/ha, 0 to 100 scale) | Wheat plant response rating (0-100) [27, 30]
100: Corn plant response rating (0-100) (corn (Zea mays) [7]; [28]) | Barnyardgrass plant response rating (0-100) [8, 28] | Galium plant response rating (0-100) [11, 28] | Galium plant response rating (0 to 100 scale) [11, 29] | Kochia plant response rating (0-100) (kochia (Bassia scoparia) [18]; [30]) | Pigweed, Palmer plant response rating (0-100) [20, 30] | Foxtail, Green plant response rating (0-100) [22, 30] | Corn plant response rating (0-100) (corn (Zea mays) [23]; [30]) | Barnyardgrass plant response rating (0-100) [24, 30]
20: Horseweed plant response rating (0 to 100 scale) [9, 29]
